Source: ChEMBL document CHEMBL1201862, “PubChem BioAssay data set” (2004)
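Following 48 hours of exposure in 96-well plates, responses at five concentrations were used to interpolate endpoints linearly. Abbreviation: GI50, concentration required for 50% inhibition of growth.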 Activity calls are given as the source filed them. No stated cut-off is given here; in the data, active = GI50 up to about 1.1 µM and inactive = higher.

What was measured:
Test in all cases: inhibition of tumour cell growth, NCI panel, 48 h
HOP-92 = system: HOP-92
786-0 = system: 786-0
HCT-116 = system: HCT-116
ACHN = system: ACHN
OVCAR-4 = system: OVCAR-4
SK-MEL-5 = system: SK-MEL-5
SK-MEL-28 = system: SK-MEL-28
SF-539 = system: SF-539
UO-31 = system: UO-31
SNB-75 = system: SNB-75
HCT-15 = system: HCT-15
NCI-H522 = system: NCI-H522
SR = system: SR
UACC-257 = system: UACC-257
LOX IMVI = system: LOX IMVI
TK-10 = system: TK-10
MCF7 = system: MCF7
MDA-MB-231 = system: MDA-MB-231

Row | SMILES | GI50 (HOP-92) | GI50 (786-0) | GI50 (HCT-116) | GI50 (ACHN) | GI50 (OVCAR-4) | GI50 (SK-MEL-5) | GI50 (SK-MEL-28) | GI50 (SF-539) | GI50 (UO-31) | GI50 (SNB-75) | GI50 (HCT-15) [µM] | GI50 (NCI-H522) | GI50 (SR) | GI50 (UACC-257) | GI50 (LOX IMVI) | GI50 (TK-10) | GI50 (MCF7) | GI50 (MDA-MB-231)
1 | CCOC(=O)C(=O)CC1=Nc2ccccc2SC(c2cccc(C)c2)C1 (stereo unspecified) | 16 µM (inactive) | 17.9 µM (inactive) | 14.7 µM (inactive) | 16.6 µM (inactive) | 18 µM (inactive) | 18.2 µM (inactive) | 14.6 µM (inactive) | 19 µM (inactive) | 15.4 µM (inactive) | 18.9 µM (inactive) | 18.2 | 17.3 µM (inactive) | 22.2 µM (inactive) | 19 µM (inactive) | – | – | – | –
2 | Cc1ccc(S(=O)(=O)c2c(N)c3nc4ccccc4n3c3nc4ccccc4nc23)cc1 | – | 4.93 µM (inactive) | > 100 µM (inactive) | > 100 µM (inactive) | 38.7 µM (inactive) | > 100 µM (inactive) | > 100 µM (inactive) | 9.27 µM (inactive) | 71.4 µM (inactive) | > 100 µM (inactive) | > 100 | > 100 µM (inactive) | > 100 µM (inactive) | > 100 µM (inactive) | > 100 µM (inactive) | – | – | –
3 | O=C(O)c1ccc([C@@H]2C(=O)N(O)[C@@H]3C=CC[C@@H]32)cc1 | – | > 100 µM (inactive) | – | – | – | > 100 µM (inactive) | > 100 µM (inactive) | > 100 µM (inactive) | > 100 µM (inactive) | > 100 µM (inactive) | > 100 | > 100 µM (inactive) | – | > 100 µM (inactive) | > 100 µM (inactive) | > 100 µM (inactive) | – | –
4 | CCOc1ccc(NC(=O)/C(=N\N)C(C(=O)OC)c2nc3ccc(Cl)cc3nc2O)cc1 (stereo unspecified) | > 100 µM (inactive) | > 100 µM (inactive) | > 100 µM (inactive) | 45 µM (inactive) | > 100 µM (inactive) | > 100 µM (inactive) | > 100 µM (inactive) | > 100 µM (inactive) | 72.3 µM (inactive) | > 100 µM (inactive) | > 100 | > 100 µM (inactive) | 21.7 µM (inactive) | > 100 µM (inactive) | > 100 µM (inactive) | > 100 µM (inactive) | > 100 µM (inactive) | > 100 µM (inactive)
5 | COc1cc(C2C(C(=O)Nc3ccc(Cl)c(Cl)c3)=C(C)NC(C)=C2C(=O)Nc2ccc(Cl)c(Cl)c2)ccc1O | 2.6 µM (inactive) | 12.7 µM (inactive) | – | 10.8 µM (inactive) | 5.3 µM (inactive) | 12.2 µM (inactive) | 13.9 µM (inactive) | 10.2 µM (inactive) | 12 µM (inactive) | 10.3 µM (inactive) | – | 3.65 µM (inactive) | – | 13.8 µM (inactive) | 11.4 µM (inactive) | 19.1 µM (inactive) | – | –
6 | COc1cc2c(cc1OC)C(C#N)N(C(=O)c1ccccc1)C=C2OC(=O)c1ccccc1 (stereo unspecified) | 27 µM (inactive) | 18.1 µM (inactive) | – | 20 µM (inactive) | – | 23.9 µM (inactive) | 22.9 µM (inactive) | 19.1 µM (inactive) | 20.4 µM (inactive) | 17 µM (inactive) | 32.1 | 17.2 µM (inactive) | 61.5 µM (inactive) | 23.4 µM (inactive) | 39.4 µM (inactive) | 27.1 µM (inactive) | – | –
7 | Cn1cc(NC(=O)c2cc(NC(=O)Nc3cc(C(=O)Nc4cc(C(=O)NCCC(=N)N)n(C)c4)n(C)c3)cn2C)cc1C(=O)NCCC(=N)N | 42.2 µM (inactive) | 20.7 µM (inactive) | 37.2 µM (inactive) | 25.2 µM (inactive) | 38.7 µM (inactive) | 17.4 µM (inactive) | 25.4 µM (inactive) | 18 µM (inactive) | 33.1 µM (inactive) | 40.5 µM (inactive) | > 100 | – | 44.2 µM (inactive) | 17.7 µM (inactive) | 25.4 µM (inactive) | 22.5 µM (inactive) | – | –
8 | CN1c2ccccc2N(C(=O)c2ccccc2)C(CC(=O)O)c2cccn21 (stereo unspecified) | 19.4 µM (inactive) | > 100 µM (inactive) | – | > 100 µM (inactive) | > 100 µM (inactive) | > 100 µM (inactive) | > 100 µM (inactive) | > 100 µM (inactive) | > 100 µM (inactive) | > 100 µM (inactive) | > 100 | > 100 µM (inactive) | – | > 100 µM (inactive) | > 100 µM (inactive) | > 100 µM (inactive) | – | –
9 | COC(=O)/C(C#N)=C1\NN=NN1c1ccc(OC)cc1 | > 100 µM (inactive) | > 100 µM (inactive) | > 100 µM (inactive) | > 100 µM (inactive) | – | > 100 µM (inactive) | > 100 µM (inactive) | > 100 µM (inactive) | > 100 µM (inactive) | > 100 µM (inactive) | > 100 | > 100 µM (inactive) | – | > 100 µM (inactive) | > 100 µM (inactive) | > 100 µM (inactive) | – | –
10 | CC(=O)O[C@]12CCC[C@H]1C1(O)C(O)CCC[C@H]12 (stereo partly specified) | – | > 100 µM (inactive) | > 100 µM (inactive) | > 100 µM (inactive) | > 100 µM (inactive) | > 100 µM (inactive) | > 100 µM (inactive) | – | > 100 µM (inactive) | > 100 µM (inactive) | > 100 | > 100 µM (inactive) | > 100 µM (inactive) | > 100 µM (inactive) | > 100 µM (inactive) | > 100 µM (inactive) | – | –
